Legend:
Format in all cases: cell-based, human
[1] = test system: SMN occupancy at ACTB gene; experiment: SMN ChIP-qPCR along the ACTB gene; conditions: 72 h; for SMN/RNAPII, ACTB position 332 / SMN/RNAPII, ACTB position 1671 / SMN/RNAPII, ACTB position 2911 / SMN/RNAPII, ACTB position 3752 / SMN/RNAPII, ACTB position 4657 / SMN/RNAPII, ACTB position 5590 / SMN/RNAPII, ACTB position -72: HEK293, 20 μM, ChIP-qPCR, DMSO = 1; for occupancy levels of SMN along the ACTB gene: HEK293 cells, 20 µM
Description: (§1) ChIP was performed using the EZ-ChIP™ A - Chromatin Immunoprecipitation Kit (Millipore, 17-371) according to the manufacturer’s instruction. Antibodies were used with a range of 1–2 μg, and IgG (Millipore, polyclonal antibody, 12-370) was used as a background control. After immunoprecipitation, genomic DNA was de-crosslinked in ChIP elution buffer containing 5 M NaCl at 65 °C overnight and purified with the Qiaex II kit (Qiagen, 20021), and eluted in water for PCR amplification. Immunoprecipitated and input DNAs were used as templates for qPCR. The qPCR primer sequences for ACTB gene are the same as described earlier[9] and shown in the Supplementary Table 2. For analysis of SMN chemical antagonists, HEK293 cells were treated with DMSO, compound 1 or compound 2 (a final concentration of 20 μM) for 72 h, before processing for ChIP.

[2] = test system: RNAP II occupancy at ACTB gene; experiment: RNAP II (POLR2A) ChIP-qPCR along the ACTB gene; conditions: 72 h; for POLR2A ChIP-qPCR, ACTB position 332 / POLR2A ChIP-qPCR, ACTB position 1671 / POLR2A ChIP-qPCR, ACTB position 2911 / POLR2A ChIP-qPCR, ACTB position 3560 / POLR2A ChIP-qPCR, ACTB position 3752 / POLR2A ChIP-qPCR, ACTB position 4657 / POLR2A ChIP-qPCR, ACTB position 5590 / POLR2A ChIP-qPCR, ACTB position -72: HEK293, 20 μM; for occupancy levels of RNAP II at the promoter regions and 3′-end of the ACTB gene: HEK293 cells, 20 µM
Description: as §1

[3] = test system: R-loops at ACTB gene locus; experiment: R-loop DNA immunoprecipitation with GFP-HB along ACTB locus; conditions: for GFP-HB DNA immunoprecipitation qPCR, ACTB position 332 / GFP-HB DNA immunoprecipitation qPCR, ACTB position 1671 / GFP-HB DNA immunoprecipitation qPCR, ACTB position 3560 / GFP-HB DNA immunoprecipitation qPCR, ACTB position 3752 / GFP-HB DNA immunoprecipitation qPCR, ACTB position 4657 / GFP-HB DNA immunoprecipitation qPCR, ACTB position 5590 / GFP-HB DNA immunoprecipitation qPCR, ACTB position -72: HEK293 cells transfected with GFP-HB; for R-loop signals at the 3′-end of the ACTB gene: HEK293 cells, GFP-HB DNA immunoprecipitation
Text: Fig. 4 Effects of SMN antagonists on the interaction between SMN and RNAP II, RNAP II pause, and R-loop accumulation. a SMN antagonists disrupt binding of SMN to RNAP II. Data shown are representative of three independent experiments. b Illustration of ACTB gene and the qPCR amplification positions. c SMN antagonists reduce SMN association at ACTB gene locus. Quantification of SMN qPCR data from ChIP experiments using SMN antibody at the indicated ACTB amplification positions. The SMN levels in DMSO controls were set as 100%. d SMN antagonists lead to RNAP II pause. Quantification of RNAP II qPCR data from ChIP experiments using POLR2A antibody at the indicated ACTB amplification positions. e SMN knockout (KO) leads to R-loop accumulation. Representative single-plane images of Z-stacks of the R-loop levels in scramble vs SMN KO cells of three independent experiments. Scale bar: 5 μm. f Global nuclear R-loop accumulation in SMN KO cells. g SMN antagonists cause global nuclear R-loop accumulation. h SMN antagonists lead to R-loop accumulation at ACTB gene locus. Quantified DNA immunoprecipitation using primers along ACTB locus by using GFP antibody, in cell extracts that were transfected with GFP-RNase H1 R-loop-binding domain (GFP-HB) fusion construct for R-loop detection. a–h HEK293 cells; c, d, h data were presented as the mean ± S.E.M. of three independent experiments (*P < 0.05, **P < 0.01, ***P < 0.001 for the two-tailed Student’s t-test); f, g scatter plots representing data from single-cell and R-loop immunofluorescence analysis (number of cells = 377, 332, 295, 262, 265 for scramble, SMN KO, DMSO, Cmpd 1, Cmpd 2 condition, respectively; Mean ± Quartiles; ****P < 0.0001 for the two-tailed Mann–Whitney test; a.u.: arbitrary units). Source data are provided as a Source Data file.
HEK293 cells (ATCC, CRL-1573) were grown in DMEM (SLRI media facility) plus 10% FBS (Sigma, F1051). For analysis of SMN chemical antagonists, HEK293 cells were treated with DMSO or a series of concentrations (0, 2, 6, 10, 20, 30, 40, and 80 μM) of compound 1, compound 2 or negative compound 15 for 72 h. CRISPR-mediated SMN1 gene knockout was performed according to our previous study. Briefly, 2 μg of CRISPR/Cas9 plasmid (pCMV-Cas9-GFP), which expresses scrambled guide RNA, or guide RNA that targets the SMN1 gene exon1 (gRNA target sequence: […]) or exon3 (gRNA target sequence: […]) was transfected into HEK293 cells. Cells were sorted by BD FACSAria flow cytometry at Donnelly Center, University of Toronto 24 h after transfection, and single GFP-positive cells were seeded into a 48-well plate. The expression levels of SMN in each clone were detected by immunofluorescence. The transfection of GFP-RNase H1 R-loop-binding domain (GFP-HB) for R-loop detection into HEK293 cells was performed with the FuGENE Transfection reagent (Roche, E269A).
as §1

Compound	SMN/RNAPII, ACTB position 332 [1]	SMN/RNAPII, ACTB position 1671 [1]	SMN/RNAPII, ACTB position 2911 [1]	SMN/RNAPII, ACTB position 3752 [1]	SMN/RNAPII, ACTB position 4657 [1]	SMN/RNAPII, ACTB position 5590 [1]	SMN/RNAPII, ACTB position -72 [1]	occupancy levels of SMN along the ACTB gene [1]	POLR2A ChIP-qPCR, ACTB position 332 [2]	POLR2A ChIP-qPCR, ACTB position 1671 [2]	POLR2A ChIP-qPCR, ACTB position 2911 [2]	POLR2A ChIP-qPCR, ACTB position 3560 [2]	POLR2A ChIP-qPCR, ACTB position 3752 [2]	POLR2A ChIP-qPCR, ACTB position 4657 [2]	POLR2A ChIP-qPCR, ACTB position 5590 [2]	POLR2A ChIP-qPCR, ACTB position -72 [2]	occupancy levels of RNAP II at the promoter regions and 3′-end of the ACTB gene [2]	GFP-HB DNA immunoprecipitation qPCR, ACTB position 332 [3]	GFP-HB DNA immunoprecipitation qPCR, ACTB position 1671 [3]	GFP-HB DNA immunoprecipitation qPCR, ACTB position 3560 [3]	further results
Cn1c2c(c(=N)c3c1CCC3)CCC2 [Compound 1, 4-methyl-2,3,4,5,6,7-hexahydrodicyclopenta[b,e]pyridin-8(1H)-imine]	0.6623	0.139	0.1085	0.1464	0.1588	0.03323	0.2631	significantly reduced	0.1628	0.1331	0.08894	0.1246	0.2307	0.1056	0.1381	0.4274	significantly increased	0.009604	0.01285	0.03192	GFP-HB DNA immunoprecipitation qPCR, ACTB position 3752 [3]: 0.04162; GFP-HB DNA immunoprecipitation qPCR, ACTB position 4657 [3]: 0.02409; GFP-HB DNA immunoprecipitation qPCR, ACTB position 5590 [3]: 0.01303; GFP-HB DNA immunoprecipitation qPCR, ACTB position -72 [3]: 0.00357; R-loop signals at the 3′-end of the ACTB gene [3]: significantly increased
CCCn1c2c(c(=N)c3c1CCC3)CCC2 [Compound 2, 4-propyl-2,3,4,5,6,7-hexahydrodicyclopenta[b,e]pyridin-8(1H)-imine]	0.5015	0.45	0.3355	0.2279	0.35	0.2022	0.3107	significantly reduced	0.1333	0.1287	0.06481	0.09661	0.2124	0.1677	0.1104	0.5589	significantly increased	0.008454	0.01239	0.02386	GFP-HB DNA immunoprecipitation qPCR, ACTB position 3752 [3]: 0.02558; GFP-HB DNA immunoprecipitation qPCR, ACTB position 4657 [3]: 0.01308; GFP-HB DNA immunoprecipitation qPCR, ACTB position 5590 [3]: 0.01171; GFP-HB DNA immunoprecipitation qPCR, ACTB position -72 [3]: 0.004979; R-loop signals at the 3′-end of the ACTB gene [3]: significantly increased

Reference: PMC9481570, “A small molecule antagonist of SMN disrupts the interaction between SMN and RNAP II” (Nature Communications, 2022)
